What was measured:
[1] = system: neutrophil sonicates; details: Levy et al., Nature 1997; cited from earlier work
[2] = system: neutrophils; experiment: Neutrophil homotypic adhesion (aggregation, light transmittance); format: cell-based, human
Description: (§1) Neutrophils (10^7/500 μl) were electroporated (1.65 kV/cm, 250 μF, Ω∞, Invitrogen Electroporator VI) at 0° C. in the presence of 10−^9-10−^6 M compound VI, VIII, FDP, FMP, squalene or vehicle (ethanol 0.2%). After electroporation, cells, in cytochrome c (0.7 mg/ml), were exposed (10 minutes, 37° C.) to either cytochalasin b (5 μg/mL) and FMLP (10^−7 M)(a) or PMA ((10^−7 M)(b) and supernatants monitored at […]. Electroporation gave a 49.9% reduction in FMLP-stimulated NADPH oxidase compared to naive cells. Values (FIGS. 4a and 4b) represent the mean±SEM for n≧3, d≧6. For adhesion (FIGS. 4c and 4d), changes in light transmittance were monitored (as in Fiore, S., Nicolaou, K. C., Caulfield, T., Kataoka, H. & Serhan, C. N. Biochem. J. 266, 25-31 (1990), the teachings of which are incorporated herein by reference) after addition of compounds VI, VIII (1.6 μM) or vehicle (0.5 min) and FMLP (0.5-5 μM) (2.5 min). Cell viability remained>99%. Values represent the mean±SEM for n=3, d=9. 1,4,5-inositol-triphosphate levels were determined (Amersham) in fresh PMN (10^7 cells) exposed (5 minutes, 37° C.) to compound VI, compound VIII (1 μM) or vehicle and stimulated with FMLP (10^−7M, 37° C.) (as in FIG. 4e). % Inhibition after 10 second exposure to FMLP is reported as mean±SEM for n=4, d≧8. *p <0.05 in Student's paired t-test compared with control, while “NS” indicates no significant change compared to incubations in the presence of vehicle (ethanol 0.2%) alone. Stereochemistry of PSDP and PSMP (FIG. 4f) were assigned by routine methods (Poulter, C. D. and Rilling, H. C. Acc. Chem. Res. 11, 307-313, (1978), the teachings of which are hereby incorporated by reference).

[3] = system: neutrophils; experiment: fMLP-stimulated intracellular calcium mobilization in FURA-2 loaded neutrophils; format: cell-based, human; details: PSDP 1 μM, 5 min 37° C.; 1 nM fMLP; EDTA 5 mM
Description: Inositol trisphosphate is known to be an important intracellular mediator of calcium mobilization from intracellular stores, a critical event in cellular activation (Exton, JH, Annual Review of Pharmacology and Toxicology 1996; 36:481). In order to determine the functional importance of the PSDP-mediated reduction in IP3 levels, fMLP-stimulated intracellular calcium mobilization in the presence of polyisoprenyl phosphates was measured. FURA-2 (1 μM) loaded neutrophils (10×10^6/2 ml) in the presence of EDTA (5 mM) were exposed (5 min, 37° C.) to PSDP (10−^5-10−^6 M) or EtOH (0.1%), followed by 1 nM fMLP. […] This inhibition was concentration dependent FIG. 7 and significant (n=3, mean±SEM, *P<0.05 by Student's t-test).

[4] = molecular target: T1, Gst-Grb2 fusion protein (Homo sapiens, UniProt P62993); experiment: PSDP equilibrium binding assay to GST-GRB2
T1 construct: purchased Upstate Biotechnology 14-128
T1 sequence (P62993 whole entry, the tested form may be a part): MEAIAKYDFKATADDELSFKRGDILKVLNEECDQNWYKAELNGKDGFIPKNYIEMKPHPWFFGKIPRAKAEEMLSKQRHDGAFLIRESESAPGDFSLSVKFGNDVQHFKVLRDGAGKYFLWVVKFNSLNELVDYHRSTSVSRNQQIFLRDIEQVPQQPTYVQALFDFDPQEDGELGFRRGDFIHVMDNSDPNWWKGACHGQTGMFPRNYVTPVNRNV
Description: Equilibrium binding was determined for ^32PO4-PSDP (1 μM) to the adaptor protein, Grb2, which is known to carry two SH3 domains and one SH2 domain (Lowenstein, EJ, et al., Cell, 1992; 70:431). […] Bound material was separated from unbound by spin filtration (0.2 μm) and quantitated by scintillation counting.
To 100 μl of 0.9% NaCl was added 2 μg GST-GRB2 with 0-100 μg compound (e.g., delipidated human serum albumin, SH3-bearing SOS peptide or unlabeled PSDP) to be tested. The samples were prepared directly in the top of PGC spin filter tubes.
To the solution was added radiolabeled-PSDP in 1 μl ethanol. The mixture was vortexed and incubated at 37° C. for 30 minutes. After the incubation period, the sample was centrifuged at 2000 rpm at 25° C. for 3 minutes. […] The filter was removed, placed in a scintillation vial and the amount of radioactivity bound to the trapped agarose complex (i.e., bound material) was determined.
1 ml of CHCl3:MeOH (2:1) was added to the filtrate (a clear interface should be evident). […] At this stage, dependent upon the amount of radioactivity present, the radioactivity of the sample was determined either in scintillation fluid or by phosphoimage after TLC. […]
Bound material is reflected in the filtrate by loss of radioactivity when radiolabeled material is incubated in the presence of the GRB2 complex compared to the absence of the agarose complex. […]

[5] = molecular target: Phospholipase D (PLD); experiment: Phospholipase D inhibition, choline release, Lineweaver-Burk analysis; format: biochemical; details: PLD 3 units/125 μL, phosphatidyl choline substrate, 30° C., pH 7.5
Description: Phospholipase D (PLD) plays a central role in cellular activation in diverse cell types via the release of the bioactive […], phosphatidate. Several agonists operating through different classes of receptors have been defined that stimulate cellular PLD activity. No known endogenous regulators of PLD have been identified. Activation of neutrophils leads to an increase in intracellular phosphatidic acid that is generated predominantly via the hydrolysis of phosphatidyl choline by phospholipase D (Agwu, DE, et al., Journal of Clinical Investigation 1991; 88:531). Because PSDP inhibited phosphatidate mediated superoxide anion generation in human neutrophil sonicates (Levy, BD, et al., Nature 1997; 389:985), its impact on phospholipase D was determined. A purified enzyme was utilized to directly evaluate the action of PSDP with PLD. Lineweaver-Burk plots for PLD (3 units/125 μL; EC 3.1.4.4, Sigma Chemical Co.) in the presence of EtOH (0.2%) or increasing concentrations of PSDP are reported in FIG. 5. After addition of PSDP to PLD (5 min, 30° C.), phosphatidyl choline (lecithin) in 60 mM Tris/HCl+10 mM CaCl2, pH 7.5 was added (30° C.) and reactions were terminated at 30 second intervals (t0-90 sec) with Tris-HCl (1 M) plus EDTA (50 mM). Choline release was quantitated as in Abousalham A. et al. Biochimica et Biophysica Acta 1;1158 (1993). […]

[6] = system: electroporated neutrophils; experiment: Superoxide anion generation (NADPH oxidase activity) by electroporated neutrophils; format: cell-based, human
Description: To test the impact of compounds VI and VIII on neutrophil responses, the isolated lipids were introduced into neutrophils by electroporation prior to determining NADPH oxidase activity. […] Prenyl cysteine analogues can disrupt G-protein interaction with activated FMLP receptors (Scheer, A. & Gierschik, P. Biochemistry. 34,4952-4961 (1995), the teachings of which are incorporated herein by reference); therefore to determine compound VI's level of action, neutrophil superoxide anion generation was examined in the presence of phorbol 12-myristate 13-acetate (PMA), a potent trigger for O2- production which bypasses cell surface receptors to stimulate protein kinase C and subsequent NADPH assembly (see for example, Baggiolini, M., Boulay, F., Badwey, J. A. & Curnutte, J. T. FASEB J. 7, […] (1993); FIG. 3c).
After electroporation, cells in cytochrome c (0.7 mg/ml) were exposed (10 min, 37° C.) to PMA (10^−7 M), FMLP (10^−7 M) plus cytochalasin b (15 μg/ml), compound VI (1 μM) or compound VIII (1 μM) and supernatants monitored at 550 nm. Values represent the mean±SEM for n≧4.
as §1

In the case of `CC(C)=CCC/C(C)=C/CC/C(C)=C/C1C(COP(=O)(O)OP(=O)(O)O)C1(C)CC/C=C(\C)CCC=C(C)C` (stereo in doubt) [Compound VI, presqualene diphosphate], the “inhibition of phosphatidate mediated superoxide anion generation in human neutrophil sonicates” value [1] is listed as “inhibited”, the “stimulation of adhesion by the compound alone” value ([2]; no agonist) is listed as “neither compound VI nor VIII alone stimulated” and the “inhibition of FMLP-stimulated homotypic adhesion” value ([2]; μM levels) is listed as “inhibited”. The “inhibition of the aggregatory response to FMLP (homotypic adhesion)” value ([2]; μM levels (1.6 μM), FMLP 0.5-5 μM, intact cells, p<0.001) was 63%, the “inhibition of fMLP-stimulated [Ca2+]i mobilization” value [3] was “inhibition” and the “binding of radiolabeled PSDP to Gst-Grb2 complexed to agarose beads” value ([4]; 32PO4-PSDP 1 μM, 20 min 37° C.) was “bound”. For the same compound, the “competition of radioligand (32PO4-PSDP) off Gst-Grb2” value ([4]; excess unlabeled PSDP, albumin 50 μg, Sos 50 μg) was “could be competed off”, the Ki [5] was less than 0.1 µM and the “inhibition of PMA activated superoxide anion generation at 10 nM” value ([6]; compound 10 nM, PMA 100 nM) was “significant inhibition still present”. For the same compound, the “inhibition of PMA activated superoxide anion generation” value ([6]; compound 1 μM, PMA 100 nM) was 44%, the “inhibition of neutrophil superoxide anion generation” value ([6]; nM-μM amounts) was “inhibited” and the “inhibition of the FMLP-triggered generation of superoxide anion” value ([6]; nM-μM quantities introduced by electroporation, FMLP 10^-7 M plus cytochalasin b) was 60%. For the same compound, the “stimulation of O2- production by the compound alone” value ([6]; no agonist, 1 μM (FIG. 3c)) was “neither compound VI nor VIII alone stimulated”.

Reference: US6416965B2, “Screening methods for presqualene disphosphate analogs” (Brigham and Women's Hospital, priority 1997, dated 2002)
